Laboratory results as given in US9532990B2 (Zhejiang DTRM Biopharma Co. Ltd., priority 2014, dated 2017).
Like-named read-outs stand apart in the source and are kept apart here.

Target: BTK wild type (Homo sapiens (Human), UniProt Q06187)
Test: Inhibition assay of BTK kinase activity (HTRF)
Assay type: biochemical
Method: Inhibition Assay of BTK Kinase Activity:
The enzyme reaction mixture of BTK wild type standard HTRF assay contained 1 nM BTK wild type, 1 μM biotin-TK1 peptide, and 30 μM ATP in a buffer. The enzyme reaction were carried out at room temperature for 60 minutes. […] The plates were incubated at room temperature for 60 minutes and then read in the Envision plate reader.

[1] = all compounds with IC50 of less 10 nM, read-out: IC50 (BTK)

Sequence of BTK wild type (Q06187 whole entry): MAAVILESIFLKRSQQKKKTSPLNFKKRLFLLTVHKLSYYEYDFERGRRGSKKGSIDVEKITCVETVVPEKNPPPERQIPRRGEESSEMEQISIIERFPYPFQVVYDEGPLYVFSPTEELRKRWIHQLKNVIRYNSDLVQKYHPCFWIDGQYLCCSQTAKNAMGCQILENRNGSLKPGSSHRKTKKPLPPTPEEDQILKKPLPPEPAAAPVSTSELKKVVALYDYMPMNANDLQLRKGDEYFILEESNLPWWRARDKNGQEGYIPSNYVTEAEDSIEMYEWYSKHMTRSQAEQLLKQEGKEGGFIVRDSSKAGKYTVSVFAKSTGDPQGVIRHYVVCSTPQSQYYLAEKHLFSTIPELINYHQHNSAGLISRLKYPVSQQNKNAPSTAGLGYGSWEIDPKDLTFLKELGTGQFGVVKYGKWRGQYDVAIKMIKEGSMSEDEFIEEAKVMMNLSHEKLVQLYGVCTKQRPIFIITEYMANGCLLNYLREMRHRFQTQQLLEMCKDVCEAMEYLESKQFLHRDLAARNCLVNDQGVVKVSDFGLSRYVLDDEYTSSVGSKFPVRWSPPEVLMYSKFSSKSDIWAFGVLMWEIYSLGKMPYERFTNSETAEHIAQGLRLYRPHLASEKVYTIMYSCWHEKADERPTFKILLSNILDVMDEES

Row | Compound | IC50 (read-out: BTK IC50) | IC50 [1]
1 | N#CC(=O)N1CC[C@@H](n2nc(-c3ccc(Oc4c(F)c(F)cc(F)c4F)cc3F)c3c(N)ncnc32)C1 [Compound 112, 2-((R)-3-(4-amino-3-(2-fluoro-4-(2,3,5,6-tetrafluorophenoxy)phenyl)-1H-pyrazolo[3,4-d]pyrimidin-1-yl)pyrrolidin-1-yl)-2-oxoacetonitrile] | 107 nM | 
2 | CN/C(=N\C#N)N1CCCC(n2nc(-c3ccc(Oc4c(F)c(F)cc(F)c4F)cc3F)c3c(N)ncnc32)C1 (stereo not shown) [Compound 54, 3-[4-amino-3-[2-fluoro-4-(2,3,5,6-fluorophenoxy)phenyl]-1H-pyrazolo[3,4-d]pyrimidine-1-yl]-N′-cyano-N-methyl-piperidine-1-carboxamidine] | 1620 nM | 
3 | Nc1ncnc2c1c(-c1ccc(Oc3c(F)c(F)cc(F)c3F)cc1F)nn2[C@@H]1CCN(C(=O)C(=O)C2CC2)C1 [Compound 78, 1-((R)-3-(4-amino-3-(2-fluoro-4-(2,3,5,6-tetrafluorophenoxy)phenyl)-1H-pyrazolo[3,4-d]pyrimidin-1-yl)pyrrolidin-1-yl)-2-cyclopropylethane-1,2-dione] | 1900 nM | 
4 | C=CC(=O)N1CCCC(n2nc(-c3ccc(C(=O)c4ccc(F)cc4)c(F)c3)c3c(N)ncnc32)C1 (stereo not shown) [Compound 1, 1-(3-(4-amino-3-(3-fluoro-4-(4-fluorobenzoyl)phenyl)-1H-pyrazolo[3,4-d]pyrimidin-1-yl)piperidin-1-yl)prop-2-en-1-one] | 66 nM | 
5 | CN/C(=C\[N+](=O)[O-])N1CCCC(n2nc(-c3ccc(Oc4c(F)c(F)cc(F)c4F)cc3F)c3c(N)ncnc32)C1 (stereo not shown) [Compound 55, 1-[3-[4-amino-3-[2-fluoro-4-(2,3,5,6-three-fluorophenoxy)phenyl]-1H-pyrazolo[3,4-d]pyrimidin-1-yl]-1-piperidinyl]-1-(methylamino)-2-nitro ethylene] | 1740 nM | 
6 | CN(C)CC(=O)N1CCCC(n2nc(-c3ccc(Oc4c(F)c(F)cc(F)c4F)cc3F)c3c(N)ncnc32)C1 (stereo not shown) [Compound 62, 1-(3-(4-amino-3-(2-fluoro-4-(2,3,5,6-tetrafluorophenoxy)phenyl)-1H-pyrazolo[3,4-d]pyrimidin-1-yl)piperidin-1-yl)-2-(dimethylamino)ethanone] | 207 nM | 
7 | C=CC(=O)N1CCCC(n2nc(-c3ccc(Oc4ccccc4NS(C)(=O)=O)cc3F)c3c(N)ncnc32)C1 (stereo not shown) [Compound 19, N-(2-(4-(1-(1-acryloylpiperidin-3-yl)-4-amino-1H-pyrazolo[3,4-d]pyrimidin-3-yl)-3-fluorophenoxy)phenyl)methanesulfonamide] | 67 nM | 
8 | C=CC(=O)N1CCCC(n2nc(-c3ccc(Oc4cccc(F)c4[N+](=O)[O-])cc3F)c3c(N)ncnc32)C1 (stereo not shown) [Compound 12, 1-(3-(4-amino-3-(2-fluoro-4-(3-fluoro-2-nitrophenoxy)phenyl)-1H-pyrazolo[3,4-d]pyrimidin-1-yl)piperidin-1-yl)prop-2-en-1-one] | 2 nM | < 10 nM
9 | C=CC(=O)N1CCCC(Cn2nc(-c3ccc(Oc4c(F)c(F)cc(F)c4F)cc3F)c3c(N)ncnc32)C1 (stereo not shown) [Compound 31, 1-(3-((4-amino-3-(2-fluoro-4-(2,3,5,6-tetrafluorophenoxy)phenyl)-1H-pyrazolo[3,4-d]pyrimidin-1-yl)methyl)piperidin-1-yl)prop-2-en-1-one] | 15 nM | 
10 | Nc1ncnc2c1c(-c1ccc(Oc3c(F)c(F)cc(F)c3F)cc1F)nn2C1CCCN(C(=O)C(=O)C2CC2)C1 (stereo not shown) [Compound 81, 1-(3-(4-amino-3-(2-fluoro-4-(2,3,5,6-tetrafluorophenoxy)phenyl)-1H-pyrazolo[3,4-d]pyrimidin-1-yl)piperidin-1-yl)-2-cyclopropylethane-1,2-dione] | 2240 nM | 
11 | C=CC(=O)N1CCCC(n2nc(-c3ccc(C(=O)c4ccccc4F)cc3F)c3c(N)ncnc32)C1 (stereo not shown) [Compound 4, 1-(3-(4-amino-3-(2-fluoro-4-(2-fluorobenzoyl)phenyl)-1H-pyrazolo[3,4-d]pyrimidin-1-yl)piperidin-1-yl)prop-2-en-1-one] | 2 nM | 
12 | Nc1ncnc2c1c(-c1ccc(Oc3c(F)c(F)cc(F)c3F)cc1F)nn2[C@H]1CCCN(C(=O)CCl)C1 [Compound 100, 1-((S)-3-(4-amino-3-(2-fluoro-4-(2,3,5,6-tetrafluorophenoxy)phenyl)-1H-pyrazolo[3,4-d]pyrimidin-1-yl)piperidin-1-yl)-2-chloroethanone] | 2 nM | < 10 nM
13 | Nc1ncnc2c1c(-c1ccc(Oc3c(F)c(F)cc(F)c3F)cc1F)nn2[C@@H]1CCCN(C(=O)C(Cl)Cl)C1 [Compound 101, 1-((R)-3-(4-amino-3-(2-fluoro-4-(2,3,5,6-tetrafluorophenoxy)phenyl)-1H-pyrazolo[3,4-d]pyrimidin-1-yl)piperidin-1-yl)-2,2-dichloroethanone] | 525 nM | 
14 | C=CS(=O)(=O)N1CCCC(n2nc(-c3ccc(C(=O)c4cccc(F)c4)cc3F)c3c(N)ncnc32)C1 (stereo not shown) [Compound 8, (4-(4-amino-1-(1-(vinylsulfonyl)piperidin-3-yl)-1H-pyrazolo[3,4-d]pyrimidin-3-yl)-3-fluorophenyl)(3-fluorophenyl)methanone] | 2 nM | 
15 | Nc1ncnc2c1c(-c1ccc(Oc3c(F)c(F)cc(F)c3F)cc1F)nn2C1CCCN(C(=O)c2c[nH]cn2)C1 (stereo not shown) [Compound 59, (3-(4-amino-3-(2-fluoro-4-(2,3,5,6-tetrafluorophenoxy)phenyl)-1H-pyrazolo[3,4-d]pyrimidin-1-yl)piperidin-1-yl)(1H-imidazol-4-yl)methanone] | 174 nM | 
16 | Nc1ncnc2c1c(-c1ccc(Oc3c(F)c(F)cc(F)c3F)cc1F)nn2[C@@H]1CCN(C(=O)NO)C1 [Compound 115, (3R)-3-(4-amino-3-(2-fluoro-4-(2,3,5,6-tetrafluorophenoxy)phenyl)-1H-pyrazolo[3,4-d]pyrimidin-1-yl)-N-hydroxypyrrolidine-1-carboxamide] | 13 nM | 
17 | C=CC(=O)N1CCC(n2nc3c4c(ncnc42)Nc2cc(Oc4c(F)c(F)cc(F)c4F)ccc2-3)C1 (stereo not shown) [Compound 24] | 1020 nM | 
18 | COC(=O)NC(=O)/C=C\C(=O)N1CCCC(n2nc(-c3ccc(Oc4c(F)c(F)cc(F)c4F)cc3F)c3c(N)ncnc32)C1 (stereo not shown) [Compound 47, (Z)-methyl 4-(3-(4-amino-3-(2-fluoro-4-(2,3,5,6-tetrafluorophenoxy)phenyl)-1H-pyrazolo[3,4-d]pyrimidin-1-yl)piperidin-1-yl)-4-oxobut-2-enoylcarbamate] | 6 nM | < 10 nM
19 | Nc1ncnc2c1c(-c1ccc(Oc3c(F)c(F)cc(F)c3F)cc1F)nn2C1CCCN(C(=O)CCl)C1 (stereo not shown) [Compound 61, 1-(3-(4-amino-3-(2-fluoro-4-(2,3,5,6-tetrafluorophenoxy)phenyl)-1H-pyrazolo[3,4-d]pyrimidin-1-yl)piperidin-1-yl)-2-chloroethanone] | 0.8 nM | < 10 nM
20 | Nc1ncnc2c1c(-c1ccc(Oc3c(F)c(F)cc(F)c3F)cc1F)nn2[C@@H]1CCN(C(=O)C(Cl)CO)C1 (stereo partly shown) [Compound 119] | 83 nM | 
21 | Nc1ncnc2c1c(-c1ccc(Oc3c(F)c(F)cc(F)c3F)cc1F)nn2[C@H]1CC[C@H](N2C(=O)C=CC2=O)C1 [Compound 37, 1-((1 S,3S)-3-(4-amino-3-(2-fluoro-4-(2,3,5,6-tetrafluorophenoxy)phenyl)-1H-pyrazolo[3,4-d]pyrimidin-1-yl)cyclopentyl)-1H-pyrrole-2,5-dione] | 99 nM | 
